The values that follow come from patent US10154991B2, “Anesthetic compounds and related methods of use” (priority 2012, dated 2018).

Where two headings read alike, the source gives them in different places.

Data set [1] is described as follows: Octanol:water partition coefficients. Type of data set: physicochemical. The note with it: 10 mM Tris pH 7.4; read-out: Octanol/Water Partition Coefficient ± SD (converted). The method, then:
One mg of each hypnotic was added to 10 ml of water buffered with 10 mM Tris (pH 7.4) and 0.5 ml or 1 ml of octanol. The mixture was stirred overnight and then centrifuged to more fully separate the organic and aqueous phases. The relative hypnotic concentrations in each phase (i.e. the partition coefficient) were determined by high performance liquid chromatography as described for blood.

The test system of the next data set is Sprague-Dawley rats. The data set can be described thus: In vivo sedative/hypnotic testing, IV bolus, rats. More on the design: species or system rat. The note with it: for slope of duration of LORR vs logarithm of dose: rats. The protocol: (§1) Animals were housed in a dedicated room at the vivarium of VivoPath Inc., located at Redstone Center, 55 Union Street, Worcester, Mass. Housing and care was as specified in the USDA Animal Welfare Act (9 CFR, Parts 1, 2, and 3) and as described in the Guide for the Care and Use of Laboratory Animals from the National Research Council. Environmental conditions of housing rooms are set at the following ranges: temperature: 70±7° F. (22±4° C.), humidity: 50±20%, light cycle: 12-hour light/12-hour dark cycle—lights on at 7 am and off at 7 pm., air changes: ten or more air changes per hour with 100% fresh air. The animals' body weights were measured prior to the first dose on each experimental day.
Adult male Sprague-Dawley rats (225-300 g) were purchased from Harlan (South Easton, Mass.).
(§2) Drugs were prepared in either dimethylsulfoxide/saline or saline vehicle or hydroxypropyl-β-cyclodextrin (20% in water, pH 7.0) solution and were administered as an intravenous bolus injection. Animals received 1-4 doses of drug(s) during an experimental day, either ascending doses or different drugs. Doses were administered at intervals equal to the longer of 1 h or 10-times the duration of apparent sedative/hypnotic effects from the previous dose. The sedative/hypnotic properties of the drugs were evaluated by observation of the rats, ranging from mild excitation, mild sedation apparent due to reduced activity, and moderate sedation to hypnosis reflected by loss of righting reflex (LORR, the ability to place rear and hind legs under the body, as well as attenuation/loss of nociceptive reflexes).

A further data set has as its system rats. The data set can be described thus: loss of righting reflexes (LORR) assay after IV bolus. The conditions noted are these: for ED50: Rattus norvegicus, iv, read-out: ED50 ± SD; for Slope of Duration vs. Log Dose ± SD: duration of LORR vs log dose, rats.
The test system of a further data set is ICR mice. Nature of the data set: In vivo sedative/hypnotic testing, IV bolus, mice. More on the design: species or system mouse. The note with it: for slope of duration of LORR vs logarithm of dose: mice. The protocol:
as §1
Adult ICR mice (20-30 g) were purchased from Harlan (South Easton, Mass.). Drugs were administered as intravenous bolus injection in a tail vein.
as §2

The next data set relates to dogs and monkeys. The data set can be described thus: Preliminary studies of duration of action in dogs and monkeys. Type of data set: in vivo. The conditions noted are these: large animals, similar to that in rats.
Data set [2] in a line: In vitro metabolic half-life of hypnotics in rat blood. Type of data set: in vitro ADME. The conditions noted are these: rat blood; for half-life at 100 μM: Sprague-Dawley, rat. The method, then: On the day of study, whole blood was drawn from the femoral venous catheters of 3 Sprague-Dawley rats (1-2 ml/rat), immediately anticoagulated with heparin (38 U), pooled, and stored on ice. A 1 ml aliquot of blood was warmed at 37° C. for 5 minutes and hypnotic (from a 40 mM in dimethyl sulfoxide stock solution) was added to a final concentration of 100 μM. After the desired incubation time, a 150 μl sample was removed and the metabolic reaction was quenched with 150 μl acetonitrile (Sigma-Aldrich, St. Louis, Mo.). Zero time point samples were prepared by adding 150 μl acetonitrile to blood prior to adding hypnotic (from a 4 mM in dimethyl sulfoxide stock solution). The quenched samples were centrifuged and the resultant supernatant separated and stored at −20° C. until analyzed. Hypnotic concentrations in thawed samples were determined by high performance liquid chromatography using a Varian Prostar system with a 4.6×250 mm Proto 300 C18 column (Nest Group, Southborough, Mass.) with the UV detector set at 240 nm.

For data set [3] the following is noted: From Pejo et al.; cited from earlier work.
In another data set the test system is beagle dogs. The conditions noted are these: dogs. The protocol: A pilot study was conducted in dogs to assess anesthesia induced by cyclopropyl-MOC-metomidate continuous infusion without a bolus induction dosing. Two dogs received cyclopropyl-MOC-metomidate as a 1 mg/kg/min IV infusion without prior bolus administration.
Anesthesia induction was determined using the methods described above.
Etomidate was administered to dogs at IV bolus doses ranging from 0.25 to 2 mg/kg. Anesthesia in the dogs was measured as described above. […] The bolus dose of 2 mg/kg was adopted to induce anesthesia prior to subsequent continuous infusions.
Propofol was administered to dogs as an IV bolus dose of 5 mg/kg to induce anesthesia followed by a continuous infusion at 0.4 mg/kg/min.

For data set [4], the system named is adrenal cortisol production. The method, then: Dexamethasone (0.01 mg/kg) was administered two hours before the first administration of ACTH and re-administered every 2 hours to maintain suppression. Dexamethasone pretreatment suppresses the hypothalamo-hypophyseal axis to prevent endogenous ACTH release and subsequent adrenocortical steroid secretion. […] Synthetic ACTH (Synacthen, 250 μg) was then administered at times after test substance administration to evaluate the effects of the test substance on the release of the adrenal steroid, cortisol.
All study methods described for Study 1 were repeated, except the ACTH administration at the end of infusion was omitted.

Where [5] appears, read: pooled heparinised whole blood, 37° C., 100 μM, read-out: Blood Half-Life (95% CI).

For `COC(=O)CCOC(=O)c1cncn1[C@H](C)c1ccccc1` [Methoxycarbonyl etomidate, methoxycarbonyl etomidate, reference compound], in [1], the logD is 2.28. For the same compound, the Rat response entry with Sprague-Dawley rats (IV bolus, doses as in the cell) is given as “Sedation/hypnosis induced at 8 &”. Further, the ED50 is around 8 mg/kg in the data set with Sprague-Dawley rats (Rattus norvegicus, sedation/hypnosis, IV); 5.3 ± 1.5 mg/kg in the data set on rats; around 10 mg/kg in the data set with ICR mice (Mus musculus, sedation/hypnosis, IV). Further, the “slope of duration of LORR vs logarithm of dose” value in the data set with Sprague-Dawley rats and with ICR mice was “approximately 1.0” each time. For the same compound, in the data set with rats, the “Slope of Duration vs. Log Dose ± SD” value is on record as 1.0±0.3 min/(log mg/kg). This compound came in with a duration of action in the data set on dogs and monkeys of 1 to 2 min. In addition, the half-life at 100 μM in data set [2] (setting [5]) was 0.41 min; in [2] (37° C., 100 μM, read-out: Blood Half-Life (95% CI)) it was 0.14 min; in data set [2] (bound based on the lower limit of quantification, read-out: metabolic half-life in rat blood (converted)), 0.333 min.

Turning to `COC(=O)[C@@H](C)OC(=O)c1cncn1[C@H](C)c1ccccc1` [(R)-methyl- methoxycarbonyl metomidate, R-methyl-methoxycarbonyl metomidate], the logD in data set [1] is 2.58. Besides, in the data set with rats, the ED50 was determined as 9.6 ± 1.9 mg/kg. Further, the half-life at 100 μM is below 0.03 min in data set [2] (setting [5]) and below 0.0333 min in data set [2] (pooled heparinised whole blood, bound based on the lower limit of quantification, read-out: metabolic half-life in rat blood (converted)).

Take `COC(=O)C[C@@H](C)OC(=O)c1cncn1[C@H](C)c1ccccc1` [β-(R)- methyl- methoxycarbonyl etomidate, β-R-methyl-MOC-etomidate]: the logD in data set [1] was 2.7. The ED50 with rats is 3.5 ± 0.6 mg/kg. Also, in [2] (setting [5]), the half-life at 100 μM was 0.91 min.

For `COC(=O)C(C)(C)COC(=O)c1cncn1[C@H](C)c1ccccc1` [α-dimethyl- methoxycarbonyl etomidate, α-dimethyl-MOC-etomidate], the logD in data set [1] is 3.35. Also, the ED50 in the data set on rats was determined as 2.4 ± 1 mg/kg. Besides, the half-life at 100 μM in data set [2] (setting [5]) was determined as 2.6 min.

For the compound `COC(=O)[C@H](C)OC(=O)c1cncn1[C@H](C)c1ccccc1` [(S)-methyl- methoxycarbonyl metomidate, S-methyl-methoxycarbonyl metomidate], in [1], the logD was 2.52. Besides, in the data set with rats, the ED50 was found to be 3.5 ± 0.4 mg/kg. The half-life at 100 μM in data set [2] (setting [5]) amounted to 0.14 min. In addition, the “metabolic half-life of S form compared with R form” value in data set [2] is “at least four-fold longer”.

For the compound `COC(=O)c1cncn1[C@H](C)c1ccccc1` [Metomidate, reference compound], in data set [1], the logD is 2.58. Further, the ED50 in the data set with rats was found to be 0.73 ± 0.5 mg/kg. Also, the half-life at 100 μM in [2] (setting [5]) was 143 min.

Consider `CCOC(=O)c1cncn1[C@H](C)c1ccccc1` [Etomidate, (R)-ethyl-1-(1-phenylethyl)-1H-imidazole-5-carboxylate, reference compound], for which the “slope of duration of LORR vs logarithm of dose” value is on record as around 24 in the data set with Sprague-Dawley rats and “approximately 10” in the data set on ICR mice. Also, in the data set with rats, the ED50 came to 0.53 ± 0.17 mg/kg. Moreover, the “Slope of Duration vs. Log Dose ± SD” value in the data set with rats is listed as 24±4.7 min/(log mg/kg). In data set [3], the “Octanol/Water Partition Coefficient ± SD” value is given as 800 ± 180. Besides, the “involuntary movements during recovery” value with beagle dogs is listed as “extended periods of involuntary movements”. Also, the “bolus dose range inducing anesthesia” value in the data set with beagle dogs (IV bolus 0.25 to 2 mg/kg tested) is 0.5 to 2 mg/kg. In the data set with beagle dogs (after 2 mg/kg bolus), the “minimum initial effective continuous infusion dose rate” value is 0.15 mg/kg/min. The “respiratory effect during infusion” value in the data set with beagle dogs (after approximately 30 minutes at 0.15 mg/kg/min) is “decrease in respiratory rate”. The “context dependence of recovery from anesthesia” value in the data set with beagle dogs (bolus vs 30- or 120-minute infusion) is given as “marked context-dependency”. In addition, the “ACTH-induced plasma cortisol response” value in [4] (Study 1, dogs, after 120-minute infusion) is listed as “markedly inhibited”. Further, the adrenal suppression entry in data set [4] (dogs, compared with the other test substances) was “more profound and durable adrenal suppression”.

By ED50 is commonly meant the dose at which the effect has come halfway, by size or by number of responders. The term half-life denotes the time needed for the level to fall by half in the phase considered.
